Values quoted from earlier work as cited in paper PMC7485629 (Biochemistry, 2019).
Where two headings read alike, the source gives them in different places.

Test system: N-terminus of PD-L1
Details: crystal structure

Structure (SMILES) | interaction with N-terminus of PD-L1 (ref [66]) | interaction with N-terminus of PD-L1 (ref [21])
Cc1c(COc2cc(F)c(CNC[C@@H](O)CC(=O)O)cc2F)cccc1-c1ccc2c(c1)OCCO2 [BMS-200] | hydrogen bond with Thr20 | –
COc1nc(OCc2cccc(-c3ccccc3)c2C)ccc1CNCCNC(C)=O [BMS-202] | – | water-mediated interaction with the backbone carbonyl of Phe19
